One block for each molecule: values may come before it. Numbered stars: 1 amine (or outer) side, 2 acyl side, 3 side chain; on linkers, the order of the positions; unused ones are H or OH. Bridge positions count the residues as written; N and C are the ends. Square brackets hold non-standard residues; d marks the D form. Side chains are listed from the residue outwards. Peptide text beside a SMILES is read from it. * marks the point of attachment. C20 diacid = O=C(O)CCCCCCCCCCCCCCCCCCC(=O)*; γGlu = O=C(O)[C@H](CCC(=O)[*:2])N[*:1]; Hyp = O=C(O)[C@@H]1C[C@@H](O)CN1; AEEA = NCCOCCOCC(=O)O
How the values were obtained:
[1] = target: T1, hAMY3 receptor (Homo sapiens, UniProt O60896+P30988); test: cAMP assay for in vitro receptor activation, hAMY3-R; format: cell-based; details: cAMP assay, hAMY3 receptor; read-out: hAMY3R EC50
T1 sequence (P30988 25-474): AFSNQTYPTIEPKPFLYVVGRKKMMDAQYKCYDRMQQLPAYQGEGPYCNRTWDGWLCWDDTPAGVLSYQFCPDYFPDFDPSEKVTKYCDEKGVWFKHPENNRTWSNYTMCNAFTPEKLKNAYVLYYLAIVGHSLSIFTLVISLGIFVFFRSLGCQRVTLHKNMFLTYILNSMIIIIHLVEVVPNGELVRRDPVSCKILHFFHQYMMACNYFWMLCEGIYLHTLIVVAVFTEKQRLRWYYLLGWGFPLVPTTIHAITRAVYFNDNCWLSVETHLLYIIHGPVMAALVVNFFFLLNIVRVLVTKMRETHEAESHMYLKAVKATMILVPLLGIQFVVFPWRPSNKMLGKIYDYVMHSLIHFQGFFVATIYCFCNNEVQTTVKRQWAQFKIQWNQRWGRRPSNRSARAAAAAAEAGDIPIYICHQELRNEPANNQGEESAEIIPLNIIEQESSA
T1 sequence (O60896 24-148 partner): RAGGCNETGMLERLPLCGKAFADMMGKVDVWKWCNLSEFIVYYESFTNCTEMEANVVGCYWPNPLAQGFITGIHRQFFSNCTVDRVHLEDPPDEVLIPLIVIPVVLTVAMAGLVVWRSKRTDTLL
How it was run: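 Stable hAMY3 cells; DPBS + 0.05% casein + 0.5 mM IBMX; graded compound doses, 30 min, RT; cAMP via HTRF Gs kit, TR-FRET read at 1 h.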

[2] = target: hAM1 receptor (Homo sapiens, UniProt O60895+Q16602); test: cAMP assay for in vitro receptor activation, hAM1-R; format: cell-based; details: cAMP assay, hAM1 receptor; read-out: hAM1R EC50
hAM1 receptor, sequence (Q16602 23-461): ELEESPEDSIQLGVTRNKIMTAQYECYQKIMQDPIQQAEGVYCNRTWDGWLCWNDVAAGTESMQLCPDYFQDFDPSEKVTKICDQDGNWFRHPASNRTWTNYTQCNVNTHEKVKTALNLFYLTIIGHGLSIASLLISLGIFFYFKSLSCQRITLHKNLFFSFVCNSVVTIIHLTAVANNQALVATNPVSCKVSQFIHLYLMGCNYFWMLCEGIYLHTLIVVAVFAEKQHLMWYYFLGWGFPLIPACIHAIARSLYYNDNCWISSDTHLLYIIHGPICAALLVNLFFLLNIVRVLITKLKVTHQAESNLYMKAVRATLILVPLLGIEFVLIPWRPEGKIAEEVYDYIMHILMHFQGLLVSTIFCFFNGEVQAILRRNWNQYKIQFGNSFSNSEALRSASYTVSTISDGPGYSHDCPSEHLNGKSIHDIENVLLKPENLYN
hAM1 receptor, sequence (O60895 43-175 partner): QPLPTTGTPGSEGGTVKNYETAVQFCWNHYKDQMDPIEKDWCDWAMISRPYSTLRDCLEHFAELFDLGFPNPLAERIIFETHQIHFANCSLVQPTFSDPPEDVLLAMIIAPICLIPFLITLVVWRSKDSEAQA
How it was run: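 Monoclonal stable hAM1-overexpressing cells, thawed from frozen stock; 8000 cells/well in DPBS + 0.05% casein + 0.5 mM IBMX; read-out cAMP.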

Structure (SMILES): CC[C@H](C)[C@H](NC(=O)[C@H](CCC(N)=O)NC(=O)[C@H](CCC(=O)O)NC(=O)[C@H](C)NC(=O)[C@H](CC(C)C)NC(=O)[C@H](CCCNC(=N)N)NC(=O)[C@H](CCC(N)=O)NC(=O)[C@@H](NC(=O)[C@@H](NC(=O)[C@@H]1CSSC[C@H](NC(=O)[C@@H](N)CCCCN)C(=O)N[C@@H](CC(N)=O)C(=O)N[C@@H]([C@@H](C)O)C(=O)N[C@@H](C)C(=O)N[C@@H]([C@@H](C)O)C(=O)N1)[C@@H](C)O)C(C)C)C(=O)N[C@@H](CCCCNC(=O)COCCOCCNC(=O)COCCOCCNC(=O)CC[C@H](NC(=O)CCCCCCCCCCCCCCCCCCC(=O)O)C(=O)O)C(=O)N[C@@H](CCC(N)=O)C(=O)N[C@@H](Cc1ccccc1)C(=O)N[C@H](C(=O)N[C@@H](CC(=O)O)C(=O)N[C@@H](CCCCN)C(=O)N[C@@H](CC(=O)O)C(=O)N[C@@H](CCCCN)C(=O)N[C@@H](CC(=O)O)C(=O)N[C@@H](CC(N)=O)C(=O)N[C@H](C(=O)N[C@@H](C)C(=O)N1CCC[C@H]1C(=O)N1CCC[C@H]1C(=O)N[C@H](C(=O)N[C@@H](CC(N)=O)C(=O)N[C@H](C(=O)NCC(=O)N[C@@H](CO)C(=O)N[C@@H](CC(N)=O)C(=O)NCC(=O)N1C[C@H](O)C[C@H]1C(N)=O)C(C)C)[C@@H](C)O)C(C)C)[C@@H](C)O [compound 136] (H-KCNTATCTVQRLAEQIK([AEEA-AEEA-γGlu-C20 diacid])QFTDKDKDNVAPPTNVGSNG[Hyp]-NH2; disulfide 2-7; N-terminus assumed)
EC50 [1]: 0.033 nM | EC50 [2]: > 5000 nM

Structure (SMILES): CC[C@H](C)[C@H](NC(=O)[C@H](CCC(N)=O)NC(=O)[C@H](Cc1c[nH]cn1)NC(=O)[C@H](C)NC(=O)[C@H](CC(C)C)NC(=O)[C@H](CCCNC(=N)N)NC(=O)[C@H](CC(=O)O)NC(=O)[C@@H](NC(=O)[C@@H](NC(=O)[C@@H]1CSSC[C@H](NC(=O)[C@H](CCCCN)NC(=O)CC[C@H](NC(=O)CCCCCCCCCCCCCCCCCCC(=O)O)C(=O)O)C(=O)N[C@@H](CC(N)=O)C(=O)N[C@@H]([C@@H](C)O)C(=O)N[C@@H](C)C(=O)N[C@@H]([C@@H](C)O)C(=O)N1)[C@@H](C)O)C(C)C)C(=O)N[C@@H](C)C(=O)N[C@@H](CCC(N)=O)C(=O)N[C@@H](Cc1ccccc1)C(=O)N[C@H](C(=O)N[C@@H](CC(=O)O)C(=O)N[C@@H](CCCCN)C(=O)N[C@@H](CC(=O)O)C(=O)N[C@@H](CCCCN)C(=O)N[C@@H](CC(=O)O)C(=O)N[C@@H](CC(N)=O)C(=O)N[C@H](C(=O)N[C@@H](C)C(=O)N1CCC[C@H]1C(=O)N1CCC[C@H]1C(=O)N[C@H](C(=O)N[C@@H](CC(N)=O)C(=O)N[C@H](C(=O)NCC(=O)N[C@@H](CO)C(=O)N[C@@H](CC(N)=O)C(=O)NCC(=O)N1C[C@H](O)C[C@H]1C(N)=O)C(C)C)[C@@H](C)O)C(C)C)[C@@H](C)O [compound 112] ({C20 diacid-γGlu}-KCNTATCTVDRLAHQIAQFTDKDKDNVAPPTNVGSNG[Hyp]-NH2; disulfide 2-7)
EC50 [1]: 0.021 nM | EC50 [2]: > 5000 nM

Structure (SMILES): CC[C@H](C)[C@H](NC(=O)[C@H](CCC(N)=O)NC(=O)[C@H](CCC(=O)O)NC(=O)[C@H](C)NC(=O)[C@H](CC(C)C)NC(=O)[C@H](CCCNC(=N)N)NC(=O)[C@H](CCC(N)=O)NC(=O)[C@@H](NC(=O)[C@@H](NC(=O)[C@@H]1CSSC[C@H](NC(=O)[C@H](CCCCN)NC(=O)CC[C@H](NC(=O)CCCCCCCCCCCCCCCCCCC(=O)O)C(=O)O)C(=O)N[C@@H](C)C(=O)N[C@@H]([C@@H](C)O)C(=O)N[C@@H](C)C(=O)N[C@@H]([C@@H](C)O)C(=O)N1)[C@@H](C)O)C(C)C)C(=O)N[C@@H](Cc1ccc(O)cc1)C(=O)N[C@@H](CCC(N)=O)C(=O)N[C@@H](Cc1ccccc1)C(=O)N[C@H](C(=O)N[C@@H](CC(=O)O)C(=O)N[C@@H](CCCCN)C(=O)N[C@@H](CC(=O)O)C(=O)N[C@@H](CCCCN)C(=O)N[C@@H](CC(=O)O)C(=O)N[C@@H](CC(N)=O)C(=O)N[C@H](C(=O)N[C@@H](C)C(=O)N1CCC[C@H]1C(=O)N1CCC[C@H]1C(=O)N[C@H](C(=O)N[C@@H](CC(N)=O)C(=O)N[C@H](C(=O)NCC(=O)N[C@@H](CO)C(=O)N[C@@H](CC(N)=O)C(=O)NCC(=O)N1C[C@H](O)C[C@H]1C(N)=O)C(C)C)[C@@H](C)O)C(C)C)[C@@H](C)O [compound 97] ({C20 diacid-γGlu}-KCATATCTVQRLAEQIYQFTDKDKDNVAPPTNVGSNG[Hyp]-NH2; disulfide 2-7)
EC50 [1]: 0.016 nM | EC50 [2]: > 5000 nM

More lines, now with the values ahead:

EC50 [1]: 0.02 nM | EC50 [2]: > 5000 nM
Structure (SMILES): CC[C@H](C)[C@H](NC(=O)[C@H](CCC(N)=O)NC(=O)[C@H](Cc1c[nH]cn1)NC(=O)[C@H](C)NC(=O)[C@H](CC(C)C)NC(=O)[C@H](CCCNC(=N)N)NC(=O)[C@H](CCC(N)=O)NC(=O)[C@@H](NC(=O)[C@@H](NC(=O)[C@@H]1CSSC[C@H](NC(=O)[C@H](CCCCN)NC(=O)CC[C@H](NC(=O)CCCCCCCCCCCCCCCCCCC(=O)O)C(=O)O)C(=O)N[C@@H](CC(N)=O)C(=O)N[C@@H]([C@@H](C)O)C(=O)N[C@@H](C)C(=O)N[C@@H]([C@@H](C)O)C(=O)N1)[C@@H](C)O)C(C)C)C(=O)N[C@@H](CCC(=O)O)C(=O)N[C@@H](CCC(N)=O)C(=O)N[C@@H](Cc1ccccc1)C(=O)N[C@H](C(=O)N[C@@H](CC(=O)O)C(=O)N[C@@H](CCCCN)C(=O)N[C@@H](CC(=O)O)C(=O)N[C@@H](CCCCN)C(=O)N[C@@H](CC(=O)O)C(=O)N[C@@H](CC(N)=O)C(=O)N[C@H](C(=O)N[C@@H](C)C(=O)N1CCC[C@H]1C(=O)N1CCC[C@H]1C(=O)N[C@H](C(=O)N[C@@H](CC(N)=O)C(=O)N[C@H](C(=O)NCC(=O)N[C@@H](CO)C(=O)N[C@@H](CC(N)=O)C(=O)NCC(=O)N1C[C@H](O)C[C@H]1C(N)=O)C(C)C)[C@@H](C)O)C(C)C)[C@@H](C)O [compound 110] ({C20 diacid-γGlu}-KCNTATCTVQRLAHQIEQFTDKDKDNVAPPTNVGSNG[Hyp]-NH2; disulfide 2-7)

EC50 [1]: 0.011 nM | EC50 [2]: > 5000 nM
Structure (SMILES): CC[C@H](C)[C@H](NC(=O)[C@H](CCC(N)=O)NC(=O)[C@H](Cc1c[nH]cn1)NC(=O)[C@H](C)NC(=O)[C@H](CC(C)C)NC(=O)[C@H](CCCNC(=N)N)NC(=O)[C@H](CCC(N)=O)NC(=O)[C@@H](NC(=O)[C@@H](NC(=O)[C@@H]1CSSC[C@H](NC(=O)[C@H](CCCCN)NC(=O)CC[C@H](NC(=O)CCCCCCCCCCCCCCCCCCC(=O)O)C(=O)O)C(=O)N[C@@H](CC(N)=O)C(=O)N[C@@H]([C@@H](C)O)C(=O)N[C@@H](CO)C(=O)N[C@@H]([C@@H](C)O)C(=O)N1)[C@@H](C)O)C(C)C)C(=O)N[C@@H](Cc1ccc(O)cc1)C(=O)N[C@@H](CCC(N)=O)C(=O)N[C@@H](Cc1ccccc1)C(=O)N[C@H](C(=O)N[C@@H](CC(=O)O)C(=O)N[C@@H](CCCCN)C(=O)N[C@@H](CC(=O)O)C(=O)N[C@@H](CCCCN)C(=O)N[C@@H](CC(=O)O)C(=O)N[C@@H](CC(N)=O)C(=O)N[C@H](C(=O)N[C@@H](C)C(=O)N1CCC[C@H]1C(=O)N1CCC[C@H]1C(=O)N[C@H](C(=O)N[C@@H](CC(N)=O)C(=O)N[C@H](C(=O)NCC(=O)N[C@@H](CO)C(=O)N[C@@H](CC(N)=O)C(=O)NCC(=O)N1C[C@H](O)C[C@H]1C(N)=O)C(C)C)[C@@H](C)O)C(C)C)[C@@H](C)O [compound 50] ({C20 diacid-γGlu}-KCNTSTCTVQRLAHQIYQFTDKDKDNVAPPTNVGSNG[Hyp]-NH2; disulfide 2-7)

EC50 [1]: 0.008 nM | EC50 [2]: > 5000 nM
Structure (SMILES): CC[C@H](C)[C@H](NC(=O)[C@H](CCC(N)=O)NC(=O)[C@H](CC(N)=O)NC(=O)[C@H](C)NC(=O)[C@H](CC(C)C)NC(=O)[C@H](CCCNC(=N)N)NC(=O)[C@H](CCC(N)=O)NC(=O)[C@@H](NC(=O)[C@@H](NC(=O)[C@@H]1CSSC[C@H](NC(=O)[C@H](CCCCN)NC(=O)CC[C@H](NC(=O)CCCCCCCCCCCCCCCCCCC(=O)O)C(=O)O)C(=O)N[C@@H](CC(N)=O)C(=O)N[C@@H]([C@@H](C)O)C(=O)N[C@@H](C)C(=O)N[C@@H]([C@@H](C)O)C(=O)N1)[C@@H](C)O)C(C)C)C(=O)N[C@@H](Cc1ccc(O)cc1)C(=O)N[C@@H](CCC(N)=O)C(=O)N[C@@H](Cc1ccccc1)C(=O)N[C@H](C(=O)N[C@@H](CC(=O)O)C(=O)N[C@@H](CCCCN)C(=O)N[C@@H](CC(=O)O)C(=O)N[C@@H](CCCCN)C(=O)N[C@@H](CC(=O)O)C(=O)N[C@@H](CC(N)=O)C(=O)N[C@H](C(=O)N[C@@H](C)C(=O)N1CCC[C@H]1C(=O)N1CCC[C@H]1C(=O)N[C@H](C(=O)N[C@@H](CC(N)=O)C(=O)N[C@H](C(=O)NCC(=O)N[C@@H](CO)C(=O)N[C@@H](CC(N)=O)C(=O)NCC(=O)N1C[C@H](O)C[C@H]1C(N)=O)C(C)C)[C@@H](C)O)C(C)C)[C@@H](C)O [compound 21] ({C20 diacid-γGlu}-KCNTATCTVQRLANQIYQFTDKDKDNVAPPTNVGSNG[Hyp]-NH2; disulfide 2-7)
